Experimental data reported in ChEMBL document CHEMBL2176988 (J Med Chem, 2012).
pEC50, pKi: −log10 of the molar value.

Columns and labels:
[1] = biological target: T1, Neuronal acetylcholine receptor; alpha3/beta4 (Homo sapiens, UniProt P30926+P32297); test: Agonist activity at human alpha3beta4 nAChR expressed in CHO cells assessed as calcium flux by calcium4-based FLIPR assay relative to nicotine; format: functional, cell-based
[2] = biological target: T1, Neuronal acetylcholine receptor; alpha3/beta4; test: Agonist activity at human alpha3beta4 nAChR expressed in CHO cells assessed as calcium flux by calcium4-based FLIPR assay; format: functional, cell-based
[3] = biological target: T2, Neuronal acetylcholine receptor; alpha4/beta2 (Homo sapiens, UniProt P17787+P43681); test: Agonist activity at alpha4beta2 nAChR in human SH-EP1 cells assessed as calcium flux by calcium4-based FLIPR assay relative to nicotine; format: functional, cell-based
T2 sequence (P17787 whole entry): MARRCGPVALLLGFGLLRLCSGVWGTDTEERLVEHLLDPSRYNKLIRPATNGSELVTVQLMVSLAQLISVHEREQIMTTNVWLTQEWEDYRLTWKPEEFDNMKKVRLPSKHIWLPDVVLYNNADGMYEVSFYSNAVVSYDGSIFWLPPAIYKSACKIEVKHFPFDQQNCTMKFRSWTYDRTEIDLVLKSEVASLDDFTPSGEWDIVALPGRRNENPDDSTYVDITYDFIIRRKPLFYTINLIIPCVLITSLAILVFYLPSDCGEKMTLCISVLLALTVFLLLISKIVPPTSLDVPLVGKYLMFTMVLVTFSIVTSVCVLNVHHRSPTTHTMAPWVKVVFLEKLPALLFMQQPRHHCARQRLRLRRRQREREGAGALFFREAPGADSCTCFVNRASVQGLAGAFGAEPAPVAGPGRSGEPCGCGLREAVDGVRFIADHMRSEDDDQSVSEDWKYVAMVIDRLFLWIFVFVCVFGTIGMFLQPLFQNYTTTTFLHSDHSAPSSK
T2 sequence (P43681 whole entry): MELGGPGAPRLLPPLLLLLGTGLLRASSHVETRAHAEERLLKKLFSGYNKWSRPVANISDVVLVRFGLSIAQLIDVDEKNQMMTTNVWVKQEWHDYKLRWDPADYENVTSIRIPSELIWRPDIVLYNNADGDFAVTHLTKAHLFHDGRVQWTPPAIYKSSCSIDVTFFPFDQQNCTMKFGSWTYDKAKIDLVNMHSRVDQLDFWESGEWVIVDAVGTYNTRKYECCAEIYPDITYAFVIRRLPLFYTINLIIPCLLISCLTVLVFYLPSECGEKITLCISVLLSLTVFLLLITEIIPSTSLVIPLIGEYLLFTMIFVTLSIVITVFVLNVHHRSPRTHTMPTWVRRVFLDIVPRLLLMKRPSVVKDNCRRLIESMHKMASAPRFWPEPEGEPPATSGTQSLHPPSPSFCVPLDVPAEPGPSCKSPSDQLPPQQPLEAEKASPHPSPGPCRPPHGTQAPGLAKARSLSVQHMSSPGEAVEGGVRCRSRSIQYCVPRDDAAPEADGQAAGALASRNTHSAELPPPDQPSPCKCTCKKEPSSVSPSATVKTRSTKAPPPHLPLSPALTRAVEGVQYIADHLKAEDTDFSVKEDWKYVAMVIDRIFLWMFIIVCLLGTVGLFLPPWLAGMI

[4] = biological target: T2, Neuronal acetylcholine receptor; alpha4/beta2; test: Agonist activity at alpha4beta2 nAChR in human SH-EP1 cells assessed as calcium flux by calcium4-based FLIPR assay; format: functional, cell-based
[5] = biological target: Neuronal acetylcholine receptor subunit alpha-7 (Homo sapiens, UniProt P36544); test: Displacement of [3H]epibatidine from human alpha7 nAChR expressed in CHO cells after 2 hrs by liquid scintillation counting; format: cell-based
Chain of Neuronal acetylcholine receptor subunit alpha-7 (P36544 whole entry): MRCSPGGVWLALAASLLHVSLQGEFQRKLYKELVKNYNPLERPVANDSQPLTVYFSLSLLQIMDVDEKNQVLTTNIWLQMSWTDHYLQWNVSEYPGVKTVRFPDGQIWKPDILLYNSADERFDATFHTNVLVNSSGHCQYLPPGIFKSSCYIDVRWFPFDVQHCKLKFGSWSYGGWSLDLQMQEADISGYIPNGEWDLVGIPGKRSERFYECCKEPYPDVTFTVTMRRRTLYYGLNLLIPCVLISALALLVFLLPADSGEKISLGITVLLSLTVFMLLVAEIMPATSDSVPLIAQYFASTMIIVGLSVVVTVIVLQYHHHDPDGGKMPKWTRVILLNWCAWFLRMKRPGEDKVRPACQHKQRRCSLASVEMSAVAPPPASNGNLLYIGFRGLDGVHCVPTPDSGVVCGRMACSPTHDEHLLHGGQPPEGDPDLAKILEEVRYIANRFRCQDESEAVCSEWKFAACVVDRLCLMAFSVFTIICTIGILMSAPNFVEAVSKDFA

[6] = biological target: T1, Neuronal acetylcholine receptor; alpha3/beta4; test: Displacement of [3H]epibatidine from human alpha3beta4 nAChR expressed in CHO cells after 2 hrs by liquid scintillation counting; format: cell-based
[7] = biological target: T2, Neuronal acetylcholine receptor; alpha4/beta2; test: Displacement of [3H]nicotine from alpha4beta2 nAChR in human SH-EP1 cells after 2 hrs by liquid scintillation assay; format: cell-based
[8] = biological target: Neuronal acetylcholine receptor; alpha4/beta2 (Rattus norvegicus, UniProt P09483+P12390); test: Displacement of [3H]epibatidine from alpha4beta2 nAChR in Sprague-Dawley rat cortex after 2 hrs by liquid scintillation counting
Chain of Neuronal acetylcholine receptor; alpha4/beta2 (Rattus norvegicus, UniProt P09483+P12390) (P09483 whole entry): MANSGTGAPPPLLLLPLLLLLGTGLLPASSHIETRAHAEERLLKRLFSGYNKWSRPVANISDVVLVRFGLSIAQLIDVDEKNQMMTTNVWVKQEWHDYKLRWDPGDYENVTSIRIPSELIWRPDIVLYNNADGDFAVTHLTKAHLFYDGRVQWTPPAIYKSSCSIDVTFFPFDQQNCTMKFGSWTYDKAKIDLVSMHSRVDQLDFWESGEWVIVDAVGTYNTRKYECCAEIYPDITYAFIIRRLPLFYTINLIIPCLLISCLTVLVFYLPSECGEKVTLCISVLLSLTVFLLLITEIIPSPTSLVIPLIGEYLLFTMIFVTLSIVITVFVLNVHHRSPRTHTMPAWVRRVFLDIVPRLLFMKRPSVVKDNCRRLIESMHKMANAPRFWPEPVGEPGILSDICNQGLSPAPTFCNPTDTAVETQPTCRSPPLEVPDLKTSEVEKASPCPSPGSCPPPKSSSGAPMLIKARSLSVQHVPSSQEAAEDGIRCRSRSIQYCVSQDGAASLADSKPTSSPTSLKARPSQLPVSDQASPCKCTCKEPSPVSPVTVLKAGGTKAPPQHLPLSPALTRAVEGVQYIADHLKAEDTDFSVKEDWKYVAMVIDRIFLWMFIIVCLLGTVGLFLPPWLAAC
Chain of Neuronal acetylcholine receptor; alpha4/beta2 (Rattus norvegicus, UniProt P09483+P12390) (P12390 whole entry): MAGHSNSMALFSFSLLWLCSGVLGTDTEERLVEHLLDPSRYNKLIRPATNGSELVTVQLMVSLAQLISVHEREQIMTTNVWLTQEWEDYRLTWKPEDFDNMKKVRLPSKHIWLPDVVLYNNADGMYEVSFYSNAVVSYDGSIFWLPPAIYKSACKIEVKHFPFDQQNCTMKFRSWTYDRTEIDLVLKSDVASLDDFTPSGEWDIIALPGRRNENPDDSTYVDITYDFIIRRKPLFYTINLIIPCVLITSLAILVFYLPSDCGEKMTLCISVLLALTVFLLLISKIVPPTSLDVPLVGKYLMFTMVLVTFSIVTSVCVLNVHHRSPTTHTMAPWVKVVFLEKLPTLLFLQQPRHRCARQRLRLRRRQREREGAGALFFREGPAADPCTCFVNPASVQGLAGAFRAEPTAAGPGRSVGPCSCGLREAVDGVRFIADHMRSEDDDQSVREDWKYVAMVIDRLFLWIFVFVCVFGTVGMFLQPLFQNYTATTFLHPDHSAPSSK

T1 sequence (P30926 whole entry): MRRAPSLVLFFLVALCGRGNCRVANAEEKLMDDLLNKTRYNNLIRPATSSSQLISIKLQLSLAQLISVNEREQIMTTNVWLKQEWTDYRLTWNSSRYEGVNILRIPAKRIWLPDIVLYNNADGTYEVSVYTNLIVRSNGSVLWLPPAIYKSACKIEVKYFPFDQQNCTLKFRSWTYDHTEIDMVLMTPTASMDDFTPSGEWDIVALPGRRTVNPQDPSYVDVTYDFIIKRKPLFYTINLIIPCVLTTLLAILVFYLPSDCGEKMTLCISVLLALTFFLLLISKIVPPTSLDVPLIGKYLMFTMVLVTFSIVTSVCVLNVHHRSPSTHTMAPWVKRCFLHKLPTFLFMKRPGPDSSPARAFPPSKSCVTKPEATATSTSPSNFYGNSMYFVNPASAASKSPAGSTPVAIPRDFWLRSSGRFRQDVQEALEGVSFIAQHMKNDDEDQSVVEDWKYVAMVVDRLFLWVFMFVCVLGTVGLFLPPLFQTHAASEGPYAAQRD
T1 sequence (P32297 whole entry): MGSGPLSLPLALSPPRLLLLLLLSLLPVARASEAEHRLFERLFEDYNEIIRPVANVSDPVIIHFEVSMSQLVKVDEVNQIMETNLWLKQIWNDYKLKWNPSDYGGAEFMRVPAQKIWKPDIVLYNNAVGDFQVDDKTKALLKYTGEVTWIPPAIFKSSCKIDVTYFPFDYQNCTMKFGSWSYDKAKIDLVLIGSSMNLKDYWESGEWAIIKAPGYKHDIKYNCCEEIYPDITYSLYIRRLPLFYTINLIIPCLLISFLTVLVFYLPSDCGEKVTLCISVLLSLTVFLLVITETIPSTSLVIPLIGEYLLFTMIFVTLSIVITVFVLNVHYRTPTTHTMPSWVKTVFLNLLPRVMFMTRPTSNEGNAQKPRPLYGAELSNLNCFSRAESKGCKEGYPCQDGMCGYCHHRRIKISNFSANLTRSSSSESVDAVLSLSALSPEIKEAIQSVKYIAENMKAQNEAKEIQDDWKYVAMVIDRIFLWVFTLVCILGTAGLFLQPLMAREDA

`O=C(c1cc(F)co1)N1CC2CNCC2C1` (configuration not stated) gave an Emax [1] of 17%, a pEC50 [2] of 4.44 and an Emax [3] of 130%. For the same compound, the pEC50 [4] was 5.85, the pKi [5] was under 5.00 and the pKi [6] was 5.08. The pKi [7] was 7.49.

Compound `O=C(c1ccco1)N1C[C@H]2CN[C@@H](C2)C1` has an Emax [1] of 120%, a pEC50 [2] of 4.77 and an Emax [3] of 83%. It also gave a pEC50 [4] of 5.33, a pKi [5] of 6.25 and a pKi [6] of 5.77. The pKi [8] was 7.01 and the pKi [7] was 7.82.

`O=C(c1ccno1)N1CC2CNCC2C1` (configuration not stated) gave an Emax [1] of 17%, a pEC50 [2] of 4.18 and an Emax [3] of 150%. For the same compound, the pEC50 [4] was 5.17, the pKi [5] was 4.72 and the pKi [6] was 5.15. The pKi [8] was 7.33 and the pKi [7] was 7.31.

Work on `Cc1ccc(C(=O)N2CC3CNCC3C2)o1` (configuration not stated) yielded an Emax [1] of 7%, a pEC50 [2] of 4.24 and an Emax [3] of 44%. The pEC50 [4] was 4.66, the pKi [5] was 5.09 and the pKi [6] was under 5.00. The pKi [8] was 6.64 and the pKi [7] was 7.38.

Compound `O=C(c1ccc(F)o1)N1C[C@@H]2CN[C@H](C2)C1` has an Emax [1] of 110%, a pEC50 [2] of 5.16 and an Emax [3] of 110%. For the same compound, the pEC50 [4] was 5.68, the pKi [5] was 4.85 and the pKi [6] was 6.05. For the same compound, the pKi [8] was 7.77 and the pKi [7] was 8.30.

Compound `O=C(c1ccccc1)N1CC2CNCC2C1` (configuration not stated) has an Emax [1] of 18%, a pEC50 [2] of 4.55 and an Emax [3] of 9%. It also gave a pEC50 [4] of 4.44, a pKi [5] of 4.70 and a pKi [6] of 4.82. It also gave a pKi [8] of 8.96 and a pKi [7] of 6.70.

Compound `O=C(c1ccco1)N1CC2CNCC2C1` (configuration not stated) has an Emax [1] of 32%, a pEC50 [2] of 4.38 and an Emax [3] of 170%. For the same compound, the pEC50 [4] was 5.35, the pKi [5] was 5.23 and the pKi [6] was 4.14. The pKi [8] was 7.28.

Work on `O=C(c1cc(Cl)co1)N1CC2CNCC2C1` (configuration not stated) yielded an Emax [1] of 53%, a pEC50 [2] of 4.25 and an Emax [3] of 39%. For the same compound, the pEC50 [4] was 4.96, the pKi [5] was under 5.00 and the pKi [6] was 5.15. The pKi [8] was 7.19 and the pKi [7] was 7.96.

Work on `O=C(c1ccc(Br)o1)N1C[C@H]2CN[C@@H](C2)C1` yielded an Emax [1] of 43%, a pEC50 [2] of 4.89 and an Emax [3] of 50%. It also gave a pEC50 [4] of 5.32, a pKi [5] of 4.85 and a pKi [6] of 5.52. It also gave a pKi [8] of 7.07 and a pKi [7] of 7.35.

Work on `COc1ccc(C(=O)N2CC3CNCC3C2)cc1` (configuration not stated) yielded an Emax [1] of 22%, a pEC50 [2] of 4.51 and an Emax [3] of 9%. It also gave a pEC50 [4] of 4.37, a pKi [5] of 4.00 and a pKi [6] of 5.08. The pKi [8] was 6.85 and the pKi [7] was 7.59.

`O=C(c1cnco1)N1CC2CNCC2C1` (configuration not stated) was tested, and the Emax [1] was 11%, the pEC50 [2] was 4.46 and the Emax [3] was 110%. For the same compound, the pEC50 [4] was 5.38, the pKi [5] was 5.12 and the pKi [6] was 4.96. It also gave a pKi [8] of 6.89 and a pKi [7] of 6.96.

`O=C(C1CC1)N1CC2CNC(C2)C1` (configuration not stated) showed an Emax [1] of 150%, a pEC50 [2] of 5.38 and an Emax [3] of 100%. It also gave a pEC50 [4] of 5.77, a pKi [5] of 6.46 and a pKi [6] of 6.38. The pKi [8] was 9.00 and the pKi [7] was 8.40.

`O=C(c1ccc(F)o1)N1CC2CNCC2C1` (configuration not stated) gave an Emax [1] of 55%, a pEC50 [2] of 4.51 and an Emax [3] of 140%. For the same compound, the pEC50 [4] was 5.24, the pKi [5] was 5.92 and the pKi [6] was 4.92. The pKi [8] was 7.29 and the pKi [7] was 8.10.

For `O=C(c1ccc(Br)o1)N1C[C@@H]2CN[C@H](C2)C1`, the Emax [1] was 61%, the pEC50 [2] was 4.80 and the Emax [3] was 27%. It also gave a pEC50 [4] of 4.92, a pKi [5] of 5.09 and a pKi [6] of 5.82. It also gave a pKi [8] of 7.24 and a pKi [7] of 8.05.

In the case of `N#Cc1ccc(C(=O)N2CC3CNCC3C2)o1` (configuration not stated), the Emax [1] was 14%, the pEC50 [2] was 4.21 and the Emax [3] was 90%. The pEC50 [4] was 4.62, the pKi [5] was under 5.00 and the pKi [6] was 5.32. For the same compound, the pKi [7] was 7.28.

`O=C(c1ccoc1)N1CC2CNCC2C1` (configuration not stated) showed an Emax [1] of 31%, a pEC50 [2] of 4.46 and an Emax [3] of 110%. The pEC50 [4] was 5.24, the pKi [5] was 4.00 and the pKi [6] was 5.32. For the same compound, the pKi [7] was 7.72.

Compound `O=C(c1ccco1)N1CC2CNC(C2)C1` (configuration not stated) has an Emax [1] of 34%, a pEC50 [2] of 5.16 and an Emax [3] of 65%. It also gave a pEC50 [4] of 5.59, a pKi [5] of 5.11 and a pKi [6] of 5.77.

Work on `O=C(c1ccncc1)N1CC2CNC(C2)C1` (configuration not stated) yielded an Emax [1] of 110%, a pEC50 [2] of 5.04 and an Emax [3] of 8%. The pEC50 [4] was 4.38, the pKi [5] was 5.89 and the pKi [6] was 5.82. The pKi [8] was 7.60.
